Data on 38 compounds can be found in patent US8846928B2 (Portola Pharmaceuticals, Inc., priority 2010, dated 2014).

The experiment addresses T1, full length active recombinant SYK enzyme (Homo sapiens, UniProt P43405).
T1 construct: full length active recombinant SYK enzyme (Millipore, Calif.); purchased Millipore
As to the kind of experiment: Inhibition of Syk tyrosine phosphorylation activity (LANCE TR-FRET kinase assay). The experiment is classed as biochemical. For orientation: In TR-FRET formats the signal depends on donor and acceptor labels being close together.

SMILES strings stand for the structures.

In the case of `Cc1cncc(Nc2nc(N[C@@H]3CCCC[C@@H]3N)ccc2C(N)=O)c1` [Example 256], the IC50 – broadly, the concentration needed to halve the response being measured – fell in the range of 1 to 10 nM.
The result for `C[C@H](N)CNc1nc(Nc2cccc(-n3nccn3)c2)c(C(N)=O)cc1F` [Example 257, (S)-2-(3-(2H-1,2,3-triazol-2-yl)phenylamino)-6-(2-aminopropylamino)-5-fluoronicotinamide] reads 1 to 10 nM; that for `C[C@H](N)CNc1nc(Nc2cccc(-c3ncccn3)c2)c(C(N)=O)cc1F` [Example 258, (S)-2-(3-(pyrimidin-2-yl)phenylamino)-6-(2-aminopropylamino)-5-fluoronicotinamide], 10 to 100 nM; that for `C[C@H](N)CNc1nc(Nc2cccc(-n3cccn3)c2)c(C(N)=O)cc1F` [Example 259, (S)-2-(3-(1H-pyrazol-1-yl)phenylamino)-6-(2-aminopropylamino)-5-fluoronicotinamide], 1 to 10 nM.
Take `Cc1cncc(Nc2nc(NC[C@H](C)N)c(F)cc2C(N)=O)c1` [Example 260, (S)-2-(5-methylpyridin-3-ylamino)-6-(2-aminopropylamino)-5-fluoronicotinamide]: the IC50 lay within 10 to 100 nM.
To `C[C@H](N)CNc1nc(Nc2cncc(F)c2)c(C(N)=O)cc1F` [Example 261, (S)-2-(5-fluoropyridin-3-ylamino)-6-(2-aminopropylamino)-5-fluoronicotinamide] belongs 100 to 1000 nM; to `CC[C@@H](Nc1nc(Nc2cccc(OC(F)(F)F)c2)c(C(N)=O)cc1F)C(N)=O` [Example 263, (R)-6-(1-amino-1-oxobutan-2-ylamino)-5-fluoro-2-(3-(trifluoromethoxy)phenylamino)nicotinamide], 100 to 1000 nM; to `CC[C@@H](Nc1nc(Nc2cccc(OC(F)F)c2)c(C(N)=O)cc1F)C(N)=O` [Example 264, (R)-6-(1-amino-1-oxobutan-2-ylamino)-5-fluoro-2-(3-(difluoromethoxy)phenylamino)nicotinamide], 100 to 1000 nM.
The result for `CC(C)C[C@@H](Nc1nc(Nc2cccc(Cl)c2)c(C(N)=O)cc1F)C(N)=O` [Example 265, (R)-6-(1-amino-4-methyl-1-oxopentan-2-ylamino)-5-fluoro-2-(3-chlorophenylamino)nicotinamide] reads 10 to 100 nM; that for `CC(C)C[C@@H](Nc1nc(Nc2ccc(F)c(Cl)c2)c(C(N)=O)cc1F)C(N)=O` [Example 266, (R)-6-(1-amino-4-methyl-1-oxopentan-2-ylamino)-5-fluoro-2-(3-chloro-4-fluorophenylamino)nicotinamide], 10 to 100 nM; that for `NC(=O)c1cc(F)c(N[C@@H]2CCOC[C@@H]2N)nc1Nc1cnc2ccccc2c1` [Example 275, 6-((3R,4R)-3-aminotetrahydro-2H-pyran-4-ylamino)-5-fluoro-2-(quinolin-3-ylamino)nicotinamide], 10 to 100 nM.
The result for `NC(=O)c1ccc(N[C@@H]2CCOC[C@@H]2N)nc1Nc1ccc2ncccc2c1` [Example 276, 6-((3R,4R)-3-aminotetrahydro-2H-pyran-4-ylamino)-2-(quinolin-6-ylamino)nicotinamide] reads 1 to 10 nM.
In the case of `NC(=O)c1cc(F)c(N[C@@H]2CCOC[C@@H]2N)nc1Nc1cccc(-n2nccn2)c1` [Example 279, 2-(3-(2H-1,2,3-triazol-2-yl)phenylamino)-6-((3R,4R)-3-aminotetrahydro-2H-pyran-4-ylamino)-5-fluoronicotinamide], the IC50 lay in the range of 1 to 10 nM.
To `NC(=O)c1cc(F)c(N[C@@H]2CCCC(F)(F)[C@@H]2N)nc1Nc1cnc2ccccc2c1` [Example 289, 6-((1R,2R)-2-amino-3,3-difluorocyclohexylamino)-5-fluoro-2-(quinolin-3-ylamino)nicotinamide] belongs 100 to 1000 nM; to `NC(=O)c1cc(F)c(N[C@@H]2CCCC(F)(F)[C@@H]2N)nc1Nc1ccc2ncccc2c1` [Example 291, 6-((1R,2R)-2-amino-3,3-difluorocyclohexylamino)-5-fluoro-2-(quinolin-6-ylamino)nicotinamide], 10 to 100 nM.
The result for `NC(=O)c1cc(F)c(N[C@@H]2CCCC(F)(F)[C@@H]2N)nc1Nc1cccc(-n2nccn2)c1` [Example 293] reads 100 to 1000 nM.
To `CC(C)[C@@H](Nc1nc(Nc2cnc3ccccc3c2)c(C(N)=O)cc1F)C(N)=O` [Example 300, (R)-6-(1-amino-3-methyl-1-oxobutan-2-ylamino)-5-fluoro-2-(quinolin-3-ylamino)nicotinamide] belongs 10 to 100 nM; to `NC(=O)c1cc(F)c(N[C@H](CC(F)(F)F)C(N)=O)nc1Nc1cnc2ccccc2c1` [Example 301, (R)-6-(1-amino-4,4,4-trifluoro-1-oxobutan-2-ylamino)-5-fluoro-2-(quinolin-3-ylamino)nicotinamide], 10 to 100 nM.
`C[C@@H](Nc1nc(Nc2ccc3ncccc3c2)c(C(N)=O)cc1F)C(N)=O` [Example 302, (R)-6-(1-amino-1-oxopropan-2-ylamino)-5-fluoro-2-(quinolin-6-ylamino)nicotinamide]: the IC50 was 10 to 100 nM.
To `CC[C@@H](Nc1nc(Nc2ccc(C3CC[N+](C)([O-])CC3)cc2)c(C(N)=O)cc1F)C(N)=O` (stereo partly drawn) [Example 308, (R)-4-(4-(6-(1-amino-1-oxobutan-2-ylamino)-3-carbamoyl-5-fluoropyridin-2-ylamino)phenyl)-1-methylpiperidine 1-oxide] belongs 100 to 1000 nM.
To `CN1CCC(c2ccc(Nc3nc(N[C@@H]4CCCC[C@@H]4N)c(F)cc3C(N)=O)cc2)CC1` [Example 309, 6-((1R,2S)-2-aminocyclohexylamino)-5-fluoro-2-(4-(1-methylpiperidin-4-yl)phenylamino)nicotinamide] belongs 10 to 100 nM.
The result for `NC(=O)c1cc(F)c(N[C@@H]2CCCC[C@@H]2N)nc1Nc1ccc2scnc2c1` [Example 310] reads 1 to 10 nM; that for `NC(=O)c1cc(F)c(N[C@@H]2CCCC[C@@H]2N)nc1Nc1ccccc1` [Example 312, 6-((1R,2S)-2-aminocyclohexylamino)-5-fluoro-2-(phenylamino)nicotinamide], 1 to 10 nM.
Consider `Cc1ccccc1Nc1nc(N[C@@H]2CCCC[C@@H]2N)c(F)cc1C(N)=O` [Example 313, 6-((1R,2S)-2-aminocyclohexylamino)-5-fluoro-2-(o-tolylamino)nicotinamide], for which the IC50 was 10 to 100 nM.
Take `Cc1cccc(Nc2nc(N[C@@H]3CCCC[C@@H]3N)c(F)cc2C(N)=O)c1` [Example 314, 6-((1R,2S)-2-aminocyclohexylamino)-5-fluoro-2-(m-tolylamino)nicotinamide]: the IC50 fell in the range of 1 to 10 nM.
The result for `Cc1ccc(Nc2nc(N[C@@H]3CCCC[C@@H]3N)c(F)cc2C(N)=O)cc1` [Example 315, 6-((1R,2S)-2-aminocyclohexylamino)-5-fluoro-2-(p-tolylamino)nicotinamide] reads 1 to 10 nM; that for `NC(=O)c1cc(F)c(N[C@@H]2CCCC[C@@H]2N)nc1Nc1cccc(F)c1` [Example 316, 6-((1R,2S)-2-aminocyclohexylamino)-5-fluoro-2-(3-fluorophenylamino)nicotinamide], 1 to 10 nM.
On to `NC(=O)c1cc(F)c(N[C@@H]2CCCC[C@@H]2N)nc1Nc1cccc(Cl)c1` [Example 317, 6-((1R,2S)-2-aminocyclohexylamino)-2-(3-chlorophenylamino)-5-fluoronicotinamide], for which the IC50 lay in the range of 1 to 10 nM.
To `NC(=O)c1cc(F)c(N[C@@H]2CCCC[C@@H]2N)nc1Nc1ccc(Cl)cc1` [Example 318, 6-((1R,2S)-2-aminocyclohexylamino)-2-(4-chlorophenylamino)-5-fluoronicotinamide] belongs 10 to 100 nM; to `Cc1cccc(Nc2nc(N[C@@H]3CCCC[C@@H]3N)c(F)cc2C(N)=O)c1C` [Example 319, 6-((1R,2S)-2-aminocyclohexylamino)-2-(2,3-dimethylphenylamino)-5-fluoronicotinamide], 10 to 100 nM; to `Cc1cc(C)cc(Nc2nc(N[C@@H]3CCCC[C@@H]3N)c(F)cc2C(N)=O)c1` [Example 320, 6-((1R,2S)-2-aminocyclohexylamino)-2-(3,5-dimethylphenylamino)-5-fluoronicotinamide], 1 to 10 nM.
The result for `Cc1cc(F)cc(Nc2nc(N[C@@H]3CCCC[C@@H]3N)c(F)cc2C(N)=O)c1` [Example 321, 6-((1R,2S)-2-aminocyclohexylamino)-5-fluoro-2-(3-fluoro-5-methylphenylamino)nicotinamide] reads under 1 nM.
Turning to `Cc1cc(Nc2nc(N[C@@H]3CCCC[C@@H]3N)c(F)cc2C(N)=O)ccc1F` [Example 322, 6-((1R,2S)-2-aminocyclohexylamino)-5-fluoro-2-(4-fluoro-3-methylphenylamino)nicotinamide], the IC50 lay in the range of 1 to 10 nM.
The result for `Cc1ccc(Nc2nc(N[C@@H]3CCCC[C@@H]3N)c(F)cc2C(N)=O)cc1F` [Example 323] reads 1 to 10 nM; that for `NC(=O)c1cc(F)c(N[C@@H]2CCCC[C@@H]2N)nc1Nc1cc(F)cc(F)c1` [Example 324, 6-((1R,2S)-2-aminocyclohexylamino)-2-(3,5-difluorophenylamino)-5-fluoronicotinamide], 1 to 10 nM; that for `NC(=O)c1cc(F)c(N[C@@H]2CCCC[C@@H]2N)nc1Nc1cc(F)cc(Cl)c1` [Example 325, 6-((1R,2S)-2-aminocyclohexylamino)-2-(3-chloro-5-fluorophenylamino)-5-fluoronicotinamide], 1 to 10 nM.
For the compound `COc1cc(F)cc(Nc2nc(N[C@@H]3CCCC[C@@H]3N)c(F)cc2C(N)=O)c1` [Example 326, 6-((1R,2S)-2-aminocyclohexylamino)-5-fluoro-2-(3-fluoro-5-methoxyphenylamino)nicotinamide], the IC50 is under 1 nM.
To `NC(=O)c1cc(F)c(N[C@@H]2CCCC(F)(F)[C@@H]2N)nc1Nc1cccc2ncccc12` [Example 327, 6-((1R,2R)-2-amino-3,3-difluorocyclohexylamino)-5-fluoro-2-(quinolin-5-ylamino)nicotinamide] belongs 100 to 1000 nM.
